We go through 13 molecules from patent US9730944B2, “Antiviral activity of novel bicyclic heterocycles” (priority 2010, dated 2017).

In data set [1] the test system is poliovirus (PV type 3). Nature of the data set: microbe, parasite or virus in culture. The data set is classed as cell-based. Conditions: Enterovirus C, read-out: PV-3 EC50.
In data set [2] the test system is poliovirus (PV type 1). In words: microbe, parasite or virus in culture. The data set is classed as cell-based. The following applies: Enterovirus C, read-out: PV-1 EC50.
Data set [3] can be described thus: in vitro. Conditions: African green monkey, PV CC50.
Data set [4] deals with HIV-1 strain IIIB. Nature of the data set: Inhibition of replication of HIV-1 (IIIB strain) in MT-4 cells, MTT assay. Type of data set: cell-based. The following applies: Human immunodeficiency virus 1, IIIB, MT4, 120 h, read-out: EC50 (μM) HIV-1 (IIIB). A general note: Tetrazolium dyes change colour on reduction, which living cells bring about.
Data set [5] can be described thus: in vitro. The following applies: human.
The subject of data set [6] is HIV-2 strain (ROD). In words: Inhibition of replication of HIV-2 (ROD strain) in MT-4 cells, MTT assay. The data set is classed as cell-based. Conditions: Human immunodeficiency virus 2, MT4, 120 h, read-out: EC50 (μM) HIV-2 (ROD).
Data set [7] has as its system poliovirus (PV type 2). Nature of the data set: microbe, parasite or virus in culture. The following applies: Enterovirus C, read-out: PV-2 EC50. The data set is classed as cell-based.
Data set [8] can be described thus: in vitro. The following applies: human, PV CC50.
The mark [9] stands for this setting: MT-4 cells, MTT assay, five days after infection, 50% protection from cytopathic effect.

SMILES strings stand for the structures. Converted amounts (≈) assume the structure as drawn. Where two headings read alike, the source gives them in different places.

The EC50 is the concentration at which the effect is half-maximal. For `O=C(COc1ccc(Cl)cc1)N1CCN(c2nc(-c3ccccc3)nc3sc(-c4ccc(F)cc4)cc23)CC1` [Example 352, 2-(4-chlorophenoxy)-1-(4-(6-(4-fluorophenyl)-2-phenylthieno[2,3-d]pyrimidin-4-yl)piperazin-1-yl)ethanone], the EC50 in data set [1] (HeLa) is more than 50 µg/mL; in data set [1] (Vero) it was more than 50 µg/mL; in data set [2] (HeLa), more than 50 µg/mL; in data set [2] (Vero) it was more than 50 µg/mL; in data set [4] (setting [9]) it was more than 224 µM; in data set [6] (setting [9]), more than 224 µM. Further, the figures for the concentration for a half-maximal effect (EC50) in data set [7] (HeLa) and in data set [7] (Vero) were not below 50 µg/mL and more than 50 µg/mL, respectively. The CC50 in data set [3] is more than 150 µg/mL; in data set [5], more than 224 µM; in data set [8] it was more than 50 µg/mL.
`Cc1nc(N2CCN(C(=O)COc3ccc(Cl)cc3)CC2)c2nc(-c3ccc(F)cc3)oc2n1` [Example 168, 2-(4-chlorophenoxy)-1-(4-(2-(4-fluorophenyl)-5-methyl-oxazolo[5,4-d]pyrimidin-7-yl)piperazin-1-yl)ethanone]: the 50% effective concentration (EC50) is more than 50 µg/mL in data set [1] (HeLa); more than 50 µg/mL in data set [1] (Vero); more than 50 µg/mL in data set [2] (HeLa); more than 50 µg/mL in data set [2] (Vero); more than 50 µM in data set [4] (setting [9]); more than 50 µM in data set [6] (setting [9]). Moreover, the 50% effective concentration (EC50) in data set [7] (HeLa) and in data set [7] (Vero) was not below 50 µg/mL throughout. Further, the results for the CC50 in data set [3], in data set [5] and in data set [8] were 83.3 µg/mL (≈ 173 µM), more than 50 µM and more than 50 µg/mL, respectively.
In the case of `O=C(O)c1nc(N2CCN(C(=O)COc3ccc(Cl)cc3)CC2)c2cc(-c3ccc(F)cc3)sc2n1` [Example 357, 4-(4-(2-(4-chlorophenoxy)acetyl)piperazin-1-yl)-6-(4-fluorophenyl)thieno[2,3-d]pyrimidine-2-carboxylic acid], the 50% effective concentration (EC50) in data set [1] (HeLa) is more than 50 µg/mL; in data set [1] (Vero) it was more than 50 µg/mL; in data set [2] (HeLa) it was more than 50 µg/mL; in data set [2] (Vero), more than 50 µg/mL; in data set [4] (setting [9]), 157 µM; in data set [6] (setting [9]) it was more than 237 µM. Besides, the EC50 in data set [7] (HeLa) was not below 50 µg/mL; in data set [7] (Vero) it was more than 50 µg/mL. Further, the CC50 was 61.4 µg/mL (≈ 117 µM) in data set [3], more than 237 µM in data set [5] and more than 50 µg/mL in data set [8].
Turning to `Nc1nc(N2CCN(C(=O)COc3ccc(Cl)cc3Cl)CC2)c2nc(CCc3ccc(F)cc3)sc2n1` [Example 54, 1-(4-(5-amino-2-(4-fluorophenethyl)thiazolo[5,4-d]pyrimidin-7-yl)piperazin-1-yl)-2-(2,4-dichlorophenoxy)ethanone], the EC50 in data set [1] (HeLa) is not below 50 µg/mL; in data set [1] (Vero) it was more than 50 µg/mL; in data set [2] (HeLa) it was more than 50 µg/mL; in data set [2] (Vero) it was more than 50 µg/mL; in data set [4] (setting [9]), more than 157 µM; in data set [6] (setting [9]), more than 157 µM. The EC50 in data set [7] (HeLa) and in data set [7] (Vero) was not below 50 µg/mL each time. In addition, the results for the CC50 in data set [3], in data set [5] and in data set [8] were 138 µg/mL (≈ 245 µM), 157 µM and more than 50 µg/mL, respectively.
For `Cc1nc(N2CCN(C(=O)COc3ccc(Cl)cc3)CC2)c2nc(-c3ccc(F)cc3)sc2n1` [Example 47, 2-(4-chlorophenoxy)-1-(4-(2-(4-fluorophenyl)-5-methylthiazolo[5,4-d]pyrimidin-7-yl)piperazin-1-yl)ethanone], the EC50 is more than 50 µg/mL in data set [1] (HeLa); more than 50 µg/mL in data set [1] (Vero); more than 50 µg/mL in data set [2] (HeLa); 0.64 µg/mL (≈ 1.29 µM) in data set [2] (Vero); more than 50 µM in data set [4] (setting [9]); more than 50 µM in data set [6] (setting [9]). In addition, the EC50 in data set [7] (HeLa) was not below 50 µg/mL; in data set [7] (Vero), 0.35 µg/mL (≈ 0.703 µM). Further, the CC50 in data set [3] was more than 150 µg/mL; in data set [5] it was more than 50 µM; in data set [8] it was more than 50 µg/mL.
On to `CCOC(=O)Cc1nc(N2CCN(C(=O)COc3ccc(Cl)cc3)CC2)c2cc(-c3ccc(F)cc3)sc2n1` [Example 354, ethyl 2-(4-(4-(2-(4-chlorophenoxy)acetyl)piperazin-1-yl)-6-(4-fluorophenyl)thieno[2,3-d]pyrimidin-2-yl)acetate], for which the concentration giving a half-maximal response (EC50) was more than 50 µg/mL in data set [1] (HeLa); more than 50 µg/mL in data set [1] (Vero); more than 50 µg/mL in data set [2] (HeLa); more than 50 µg/mL in data set [2] (Vero); more than 159 µM in data set [4] (setting [9]); more than 159 µM in data set [6] (setting [9]). In addition, the concentration for a half-maximal effect (EC50) was not below 50 µg/mL in data set [7] (HeLa) and more than 50 µg/mL in data set [7] (Vero). The CC50 was 129 µg/mL (≈ 227 µM) in data set [3], 159 µM in data set [5] and more than 50 µg/mL in data set [8].
For the molecule `Cc1nc(N2CCN(C(=O)COc3ccc(Cl)cc3)CC2)c2nc(Cc3ccc(F)cc3)oc2n1` [Example 171, 2-(4-chlorophenoxy)-1-(4-(2-(4-fluorobenzyl)-5-methyloxazolo[5,4-d]pyrimidin-7-yl)piperazin-1-yl)ethanone], the EC50 is more than 50 µg/mL in data set [1] (HeLa); more than 50 µg/mL in data set [1] (Vero); more than 50 µg/mL in data set [2] (HeLa); more than 50 µg/mL in data set [2] (Vero); more than 29.6 µM in data set [4] (setting [9]); more than 33 µM in data set [6] (setting [9]). Further, the figures for the EC50 in data set [7] (HeLa) and in data set [7] (Vero) were not below 50 µg/mL and 0.07 µg/mL (≈ 0.141 µM), respectively. Further, the CC50 in data set [3] was determined as 118 µg/mL (≈ 238 µM); in data set [5] it was 33 µM; in data set [8] it was 46.1 µg/mL (≈ 93 µM).
Take `NC(=O)Cc1nc(N2CCN(C(=O)COc3ccc(Cl)cc3)CC2)c2cc(-c3ccc(F)cc3)sc2n1` [Example 358, 2-(4-(4-(2-(4-chlorophenoxy)acetyl)piperazin-1-yl)-6-(4-fluorophenyl)thieno[2,3-d]pyrimidin-2-yl)acetamide]: the 50% effective concentration (EC50) in data set [1] (HeLa) is more than 50 µg/mL; in data set [1] (Vero) it was more than 50 µg/mL; in data set [2] (HeLa) it was more than 50 µg/mL; in data set [2] (Vero) it was more than 50 µg/mL; in data set [4] (setting [9]), more than 19.1 µM; in data set [6] (setting [9]) it was more than 19.1 µM. For the same molecule, the values for the concentration giving a half-maximal response (EC50) in data set [7] (HeLa) and in data set [7] (Vero) were not below 50 µg/mL and more than 50 µg/mL, respectively. Moreover, the CC50 was more than 150 µg/mL in data set [3], more than 19.1 µM in data set [5] and more than 50 µg/mL in data set [8].
As to `Nc1nc(N2CCN(C(=O)COc3ccc(Cl)cc3)CC2)c2nc(Cc3ccc(F)cc3)sc2n1` [Example 46, 1-(4-(5-amino-2-(4-fluorobenzyl)thiazolo[5,4-d]pyrimidin-7-yl)piperazin-1-yl)-2-(4-chlorophenoxy)ethanone], the EC50 is 0.11 µg/mL (≈ 0.214 µM) in data set [1] (HeLa); more than 50 µg/mL in data set [1] (Vero); 0.11 µg/mL (≈ 0.214 µM) in data set [2] (HeLa); 0.12 µg/mL (≈ 0.234 µM) in data set [2] (Vero); 0.67 µM in data set [4] (setting [9]); 1.15 µM in data set [6] (setting [9]). The results for the EC50 in data set [7] (HeLa) and in data set [7] (Vero) were 0.039 µg/mL (≈ 0.076 µM) and 0.14 µg/mL (≈ 0.273 µM), respectively. Moreover, the CC50 is 133 µg/mL (≈ 259 µM) in data set [3], 164 µM in data set [5] and more than 50 µg/mL in data set [8].
As for `NC(=O)c1nc(N2CCN(C(=O)COc3ccc(Cl)cc3)CC2)c2cc(-c3ccc(F)cc3)sc2n1` [Example 355, 4-(4-(2-(4-chlorophenoxy)acetyl)piperazin-1-yl)-6-(4-fluorophenyl)thieno[2,3-d]pyrimidine-2-carboxamide], the EC50 in data set [1] (HeLa) is more than 50 µg/mL; in data set [1] (Vero), more than 50 µg/mL; in data set [2] (HeLa), more than 50 µg/mL; in data set [2] (Vero), more than 50 µg/mL; in data set [4] (setting [9]) it was more than 150 µM; in data set [6] (setting [9]), more than 150 µM. The concentration for a half-maximal effect (EC50) in data set [7] (HeLa) and in data set [7] (Vero) was not below 50 µg/mL in each case. The CC50 in data set [3] is 117 µg/mL (≈ 222 µM); in data set [5] it was 150 µM; in data set [8], more than 50 µg/mL.
As for `Cc1cccc(NC(=O)N2CCN(c3nc(C(N)=O)nc4sc(-c5ccc(F)cc5)cc34)CC2)c1` [Example 362, 6-(4-fluorophenyl)-4-(4-(m-tolylcarbamoyl)piperazin-1-yl)thieno[2,3-d]pyrimidine-2-carboxamide], the 50% effective concentration (EC50) in data set [1] (HeLa) is more than 50 µg/mL; in data set [1] (Vero), more than 50 µg/mL; in data set [2] (HeLa), more than 50 µg/mL; in data set [2] (Vero) it was more than 50 µg/mL; in data set [4] it was not below 255 µM; in data set [6], not below 255 µM. In addition, the values for the EC50 in data set [7] (HeLa) and in data set [7] (Vero) were not below 50 µg/mL and more than 50 µg/mL, respectively. The CC50 in data set [3] is 128 µg/mL (≈ 261 µM); in data set [5], 255 µM; in data set [8] it was more than 50 µg/mL.
In the case of `CCOC(=O)c1nc(N2CCN(C(=O)COc3ccc(Cl)cc3)CC2)c2cc(-c3ccc(F)cc3)sc2n1` [Example 353, ethyl 4-(4-(2-(4-chlorophenoxy)acetyl)piperazin-1-yl)-6-(4-fluorophenyl)thieno[2,3-d]pyrimidine-2-carboxylate], the EC50 in data set [1] (HeLa) was more than 50 µg/mL; in data set [1] (Vero) it was more than 50 µg/mL; in data set [2] (HeLa), more than 50 µg/mL; in data set [2] (Vero) it was more than 50 µg/mL; in data set [4] (setting [9]), more than 68.5 µM; in data set [6] (setting [9]), more than 68.5 µM. Besides, the EC50 in data set [7] (HeLa) and in data set [7] (Vero) was not below 50 µg/mL throughout. Further, the results for the CC50 in data set [3], in data set [5] and in data set [8] were more than 150 µg/mL, 68.5 µM and 41.3 µg/mL (≈ 74.4 µM), respectively.
Regarding `Nc1nc(N2CCN(C(=O)COc3ccc(F)cc3)CC2)c2nc(CCc3ccc(F)cc3)sc2n1` [Example 51, 1-(4-(5-amino-2-(4-fluorophenethyl)thiazolo[5,4-d]pyrimidin-7-yl)piperazin-1-yl)-2-(4-fluorophenoxy)ethanone], the 50% effective concentration (EC50) is 20.2 µg/mL (≈ 39.5 µM) in data set [1] (HeLa); 2.68 µg/mL (≈ 5.25 µM) in data set [1] (Vero); 0.13 µg/mL (≈ 0.255 µM) in data set [2] (HeLa); 0.12 µg/mL (≈ 0.235 µM) in data set [2] (Vero); 4.9 µM in data set [4] (setting [9]); more than 210 µM in data set [6] (setting [9]). Also, the EC50 is 0.23 µg/mL (≈ 0.45 µM) in data set [7] (HeLa) and 0.13 µg/mL (≈ 0.255 µM) in data set [7] (Vero). Further, the CC50 in data set [3] was 50 µg/mL (≈ 97.9 µM); in data set [5] it was 210 µM; in data set [8], more than 50 µg/mL.
